Assay results: patent US20080132520A1, “COMPOSITIONS, KITS AND METHODS FOR ADMINISTERING A TITRATION SCHEDULE COMPRISING BIFEPRUNOX COMPOUNDS” (priority 2006, published 2008)

What was measured:
[1] = Randomized, double-blinded, placebo-controlled, sequential panel, rapid titration study: safety and tolerability; type: in vivo, human
Protocol: This study represented a randomized, double-blinded, placebo-controlled, sequential panel, rapid titration study of the safety and tolerability of bifeprunox compounds in subjects with schizophrenia. In particular, this study assessed the safety, tolerability and efficacy after a rapid titration of bifeprunox to a therapeutic dose of 40 mg/day in schizophrenia and schizoaffective subjects. Eligible subjects were hospitalized at the start of the screening period and entered a single-blind placebo run-in period (day -7 to -1) to assure that the 7-day antipsychotic drug-free criterion was met prior to bifeprunox titration. Subjects then began rapid titration at an initial bifeprunox starting dose of 0.25 mg with a high proposed therapeutic dose of 40 mg/day. Two titration schedules were evaluated in sequential order, with the titration period lasting 6 to 7 days depending on the titration schedule (Day 1 to Day 6 or 7).
Each listed dose in the titration schedule was administered once daily (QD) followed by the next higher dose the following day. […] Only one repeat dose, however, was allowed during the entire titration period. Upon reaching the high proposed dose of 40 mg/day, the subject entered a 3-day maintenance period for this dose. Final assessments were performed on the day after the last maintenance period dose and follow-up assessments were performed 3 days after the last dose of study treatment.
Efficacy assessments (i.e., Positive and Negative Symptoms of Schizophrenia (PANSS) and Clinical Global Impression-Severity (CGI-S) were performed at screening, Day-1 and at the final assessment; Clinical Global Impressions-improvement (CGI-I was performed at the final assessment only. Safety was monitored throughout the study by assessment of physical examination, vital signs, adverse events (AEs), concomitant medications, clinical laboratory assessments, 12-lead electrocardiograms (ECGs), Simpson-Angus Scale (SAS) score and Barnes Akathisia Scale (BAS) score. The treatment phase lasted approximately two weeks, including follow-up assessment. Subjects remained hospitalized until the post-treatment follow-up assessment was completed or until their condition had clinically stabilized.
The study planned to include 20 subjects (10 subjects per panel). Twenty-seven subjects were screened and 18 were randomized (7 to bifeprunox and 1 to placebo in titration schedule 1 and 8 to bifeprunox and 2 to placebo titration schedule 2c). Ten subjects per panel were initially available as planned. Two subjects, however, dropped out of the first panel before the start of the study. As such, the study proceeded with the eighteen subjects.
Males and females between 18-55 years old meeting Diagnostic and Statistical Manual of Mental Disorders, 4th edition, Text Revised (DSM-IV TR) diagnosis of Schizophrenia disorder (295.10, 295.20, 295.30, 295.60 and 295.90) or Schizoaffevtive disorder (295.70).
Bifeprunox were tablets taken orally at a total daily dose of 0.25 mg to 40 mg in the following titration schedules:
Placebo tablets matching the bifeprunox tablets were taken orally using the same dosing regimen as the test product.

[2] = Rapid titration study: efficacy assessments (PANSS, CGI-S, CGI-I); type: in vivo, human; conditions: short treatment period, titration to 40 mg/day plus 3-day maintenance
Protocol: This study represented a randomized, double-blinded, placebo-controlled, sequential panel, rapid titration study of the safety and tolerability of bifeprunox compounds in subjects with schizophrenia. […] Efficacy assessments (i.e., Positive and Negative Symptoms of Schizophrenia (PANSS) and Clinical Global Impression-Severity (CGI-S) were performed at screening, Day-1 and at the final assessment; Clinical Global Impressions-improvement (CGI-I was performed at the final assessment only. […] The treatment phase lasted approximately two weeks, including follow-up assessment. Subjects remained hospitalized until the post-treatment follow-up assessment was completed or until their condition had clinically stabilized.

dopamine D2/3 receptors = conditions: cited from earlier work
[3] = molecular target: T1, serotonin 5-HT1A receptors (Homo sapiens, UniProt P08908); conditions: cited from earlier work
T1 sequence (P08908 1-422): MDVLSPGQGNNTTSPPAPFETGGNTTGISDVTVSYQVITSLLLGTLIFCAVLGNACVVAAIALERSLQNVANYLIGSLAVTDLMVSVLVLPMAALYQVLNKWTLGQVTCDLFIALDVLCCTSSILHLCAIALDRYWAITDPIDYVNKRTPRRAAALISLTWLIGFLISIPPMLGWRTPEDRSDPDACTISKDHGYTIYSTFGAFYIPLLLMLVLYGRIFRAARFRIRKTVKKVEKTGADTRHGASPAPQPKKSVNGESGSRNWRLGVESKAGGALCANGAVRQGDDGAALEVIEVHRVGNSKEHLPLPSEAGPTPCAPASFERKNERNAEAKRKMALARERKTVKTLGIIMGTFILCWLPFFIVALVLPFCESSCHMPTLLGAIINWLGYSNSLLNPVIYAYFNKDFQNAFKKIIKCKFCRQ

[4] = Clinical investigations on bifeprunox mesylate: tolerability; conditions: human, in vivo

| SMILES | subjects with TEAEs leading to discontinuation of the study treatment ([1]; titration schedule 1) | subjects with at least 1 TEAE related to study treatment ([1]; titration schedule 1) | subjects with vital sign abnormalities on the same day as relevant AEs (dizziness or orthostatic hypotension) ([1]; titration schedule 1) | tolerability of daily increases to 20 to 40 mg once the 10 mg dose was reached ([1]; titration schedule 1) | subjects reporting at least one treatment emergent adverse event (TEAE) ([1]; titration schedule 1 (0.25, 1, 5, 10, 20, 40 mg QD oral over 6 days), 7 subjects on bifeprunox) | TEAEs at the 20 mg dose level ([1]; titration schedule 1, 20 mg dose level) | subjects reporting TEAEs considered to be severe ([1]; titration schedule 1, severe TEAEs at the 1, 5 and 10 dose levels) | TEAEs of anorexia, gait abnormal NOS or orthostatic hypotension ([1]; titration schedule 2c) | additional subjects requiring re-challenge of a dose level who completed titration up to 40 mg ([1]; titration schedule 2c) | subjects with TEAEs related to the study treatment ([1]; titration schedule 2c) | subjects with vital sign abnormalities same days as AEs of dizziness ([1]; titration schedule 2c) | subjects reporting at least one TEAE ([1]; titration schedule 2c (0.25, 0.5, 2, 5, 10, 20, 40 mg QD oral over 7 days), 8 subjects on bifeprunox) | tolerability of titration from 0.25 mg to 40 mg over 7 days versus over a 6-day period ([1]; titration schedule 2c versus 1) | subjects with TEAE leading to discontinuation of the study treatment ([1]; titration schedule 2c, TEAE of dizziness) | subjects reporting TEAEs considered to be severe ([1]; titration schedule 2c, severe TEAEs at the 2 mg and 5 mg dose level) | effects on BAS, SAS, ECG or clinical laboratory evaluations ([1]; titration schedules 1 and 2c) | benefit over placebo in severity of symptoms of schizophrenia (PANSS total scores, CGI-S and CGI-I scores, responder rate) [2] | functional activity at dopamine D2/3 receptors (dopamine D2/3 receptors) | functional activity at serotonin 5-HT1A receptors [3] | tolerability during clinical investigations [4] |
| --- | --- | --- | --- | --- | --- | --- | --- | --- | --- | --- | --- | --- | --- | --- | --- | --- | --- | --- | --- | --- |
| O=c1[nH]c2cccc(N3CCN(Cc4cccc(-c5ccccc5)c4)CC3)c2o1 [bifeprunox, 7-[4-([1,1′-biphenyl]-3-ylmethyl)-1-piperazinyl]-2(3H)-benzoxa-zolone] | Three subjects | All subjects | Two subjects | well-tolerated | All subjects | No TEAEs occurred | Three subjects | no TEAEs | Two additional subjects | Six out of 8 | Four subjects | All subjects | better tolerated | One subject | Three subjects | Neither titration schedule of bifeprunox appeared to have any effects | little benefit | partial agonist | partial agonist | – |
| CS(=O)(=O)O.O=c1[nH]c2cccc(N3CCN(Cc4cccc(-c5ccccc5)c4)CC3)c2o1 [bifeprunox mesylate, 7-[4-([1,1′-biphenyl]-3-ylmethyl)-1-piperazinyl]-2(3H)-benzoxazolone monomethane-sulfonate] | – | – | – | – | – | – | – | – | – | – | – | – | – | – | – | – | – | – | – | well tolerated |
